We go through 18 compounds from patent US12161722B2, “Bifunctional heterocyclic compound having BTK degradation function via ubiquitin proteasome pathway, and use thereof” (KOREA RESEARCH INSTITUTE OF CHEMICAL TECHNOLOGY, priority 2021, dated 2024).

This experiment has as its target T1, WT BTK protein (Homo sapiens, UniProt Q06187).
T1 construct: measured for intracellular BTK protein levels by Western blotting; endogenous in cells; host or cells: TMD-8 or RAMOS cells
Nature of the experiment: BTK protein degradation assay (Western blotting), WT BTK. It counts as cell-based. The note with it: concentration range accounting for 50% degradation of WT BTK protein, TMD-8 or RAMOS cells, 24 hours. Put shortly: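 TMD-8 cells (1×10^6 cells/mL) treated 24 h with compound serial dilutions, then lysed in RIPA. Equal protein loads analysed by Western blot for BTK with GAPDH/β-actin as loading controls; activity binned by concentration giving 50% WT BTK degradation.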
(In western blotting, separated proteins are transferred to a membrane and probed.)

T1 sequence (Q06187 whole entry): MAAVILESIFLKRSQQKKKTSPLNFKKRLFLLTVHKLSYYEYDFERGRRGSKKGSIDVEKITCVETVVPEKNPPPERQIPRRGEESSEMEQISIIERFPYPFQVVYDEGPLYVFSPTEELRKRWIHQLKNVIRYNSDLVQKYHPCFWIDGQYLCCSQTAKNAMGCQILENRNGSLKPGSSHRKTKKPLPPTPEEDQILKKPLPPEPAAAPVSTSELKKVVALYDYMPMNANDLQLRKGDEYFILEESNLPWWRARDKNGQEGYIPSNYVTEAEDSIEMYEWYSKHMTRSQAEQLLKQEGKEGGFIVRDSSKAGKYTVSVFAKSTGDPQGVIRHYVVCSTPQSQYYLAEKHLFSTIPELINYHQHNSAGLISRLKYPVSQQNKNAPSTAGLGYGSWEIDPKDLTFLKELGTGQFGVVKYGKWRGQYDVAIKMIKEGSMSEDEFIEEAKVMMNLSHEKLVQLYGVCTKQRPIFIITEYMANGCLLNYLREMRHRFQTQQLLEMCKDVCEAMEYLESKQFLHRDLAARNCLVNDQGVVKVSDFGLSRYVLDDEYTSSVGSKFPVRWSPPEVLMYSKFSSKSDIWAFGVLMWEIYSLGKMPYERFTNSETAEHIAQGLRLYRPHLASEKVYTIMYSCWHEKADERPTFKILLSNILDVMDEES

Broadly, the DC50 is the concentration giving 50% degradation. On to `Cc1cccc(C)c1Nc1nn(C)c2nc(Nc3ccc4c(c3)CN(CC3CCN(c5ccc6c(c5)CN(C5CCC(=O)NC5=O)C6=O)CC3)CC4)ncc12` (stereo not drawn) [Compound 237, 3-(5-(4-((7-((3-((2,6-Dimethylphenyl)amino)-1-methyl-1H-pyrazolo[3,4-d]pyrimidin-6-yl)amino)-3,4-dihydroisoquinolin-2 (1H)-yl)methyl)piperidin-1-yl)-1-oxoisoindolin-2-yl)piperidin-2,6-one], for which the DC50 is 0.1 to 10 nM. The same measure for `Cc1cccc(C)c1Nc1nn(C)c2nc(Nc3ccc(N4CCN(c5ccc6c(c5)C(=O)N(C5CCC(=O)NC5=O)C6=O)CC4)cc3)ncc12` (stereo not drawn) [Compound 238, 5-(4-(4-((3-((2,6-dimethylphenyl)amino)-1-methyl-1H-pyrazolo[3,4-d]pyrimidin-6-yl)amino)phenyl)piperazin-1-yl)-2-(2,6-dioxopiperidin-3-yl)isoindoline-1,3-dione]: 0.1 to 10 nM.

`Cc1cccc(C)c1Nc1nn(C)c2nc(Nc3ccc(N4CCN(c5cc6c(cc5F)C(=O)N(C5CCC(=O)NC5=O)C6=O)CC4)cc3)ncc12` (stereo not drawn) [Compound 239, 5-(4-(4-((3-((2,6-Dimethylphenyl)amino)-1-methyl-1H-pyrazolo[3,4-d]pyrimidin-6-yl)amino)phenyl)piperazin-1-yl)-2-(2,6-dioxopiperidin-3-yl)-6-fluoroisoindoline-1,3-dione]: the DC50 lay within 10 to 1000 nM.

For the compound `Cc1cccc(C)c1Nc1nn(C)c2nc(Nc3ccc4c(c3)CN(C(=O)/C(C#N)=C/C3CCN(C(=O)C5CCN(c6ccc7c(c6)C(=O)N(C6CCC(=O)NC6=O)C7=O)CC5)CC3)CC4)ncc12` (stereo not drawn) [Compound 240, (E)-2-(7-((3-((2,6-Dimethylphenyl)amino)-1-methyl-1H-pyrazolo[3,4-d]pyrimidin-6-yl)amino)-1,2,3,4-tetrahydroisoquinoline-2-carbonyl)-3-(1-(1-(2-(2,6-dioxopiperidin-3-yl)-1,3-dioxoisoindolin-5-yl)piperidine-4-carbonyl)piperidin-4-yl)acrylonitrile], the DC50 lay in the range of 0.1 to 10 nM.

On to `Cc1cccc(C)c1Nc1nn(C)c2nc(Nc3ccc4c(c3)CN(C(=O)/C(C#N)=C/C3CCN(C(=O)COc5ccc6c(c5)C(=O)N(C5CCC(=O)NC5=O)C6=O)CC3)CC4)ncc12` (stereo not drawn) [Compound 241, (E)-2-(7-((3-((2,6-dimethylphenyl)amino)-1-methyl-1H-pyrazolo[3,4-d]pyrimidin-6-yl)amino)-1,2,3,4-tetrahydroisoquinoline-2-carbonyl)-3-(1-(2-((2-(2,6-dioxopiperidin-3-yl)-1,3-dioxoisoindolin-5-yl)oxy)acetyl)piperidin-4-yl)acrylonitrile], for which the DC50 was in the range of 0.1 to 10 nM. Under `Cc1cccc(C)c1Nc1nn(C)c2nc(Nc3ccc4c(c3)CN(C(=O)C3(F)CCN(c5ccc6c(c5)C(=O)N(C5CCC(=O)NC5=O)C6=O)CC3)CC4)ncc12` (stereo not drawn) [Compound 243, 5-(4-(7-((3-((2,6-dimethylphenyl)amino)-1-methyl-1H-pyrazolo[3,4-d]pyrimidin-6-yl)amino)-1,2,3,4-tetrahydroisoquinoline-2-carbonyl)-4-fluoropiperidin-1-yl)-2-(2,6-dioxopiperidin-3-yl)isoindoline-1,3-dione] stands 0.1 to 10 nM; under `Cc1cccc(C)c1Nc1nn(C)c2nc(Nc3ccc4c(c3)CN(C(=O)C3(F)CCN(c5cc6c(cc5F)C(=O)N(C5CCC(=O)NC5=O)C6=O)CC3)CC4)ncc12` (stereo not drawn) [Compound 244, 5-(4-(7-((3-((2,6-dimethylphenyl)amino)-1-methyl-1H-pyrazolo[3,4-d]pyrimidin-6-yl)amino)-1,2,3,4-tetrahydroisoquinoline-2-carbonyl)-4-fluoropiperidin-1-yl)-2-(2,6-dioxopiperidin-3-yl)-6-fluoroisoindoline-1,3-dione], 0.1 to 10 nM. Under `Cc1cccc(C)c1Nc1nn(C)c2nc(Nc3ccc(N4CCN(CC5CCN(c6cc7c(cc6F)C(=O)N(C6CCC(=O)NC6=O)C7)CC5)CC4)cc3)ncc12` (stereo not drawn) [Compound 245, 3-(5-(4-((4-(4-((3-((2,6-Dimethylphenyl)amino)-1-methyl-1H-pyrazolo[3,4-d]pyrimidin-6-yl)amino)phenyl)piperazin-1-yl)methyl)piperidin-1-yl)-6-fluoro-1-oxoisoindolin-2-yl)piperidin-2,6-one] stands 0.1 to 10 nM; under `Cc1cccc(C)c1Nc1nn(C)c2nc(Nc3ccc4c(c3)CN(C(=O)C3(F)CCN(C(=O)C5CCN(c6ccc7c(c6)C(=O)N(C6CCC(=O)NC6=O)C7=O)CC5)CC3)CC4)ncc12` (stereo not drawn) [Compound 246, 5-(4-(4-(7-((3-((2,6-dimethylphenyl)amino)-1-methyl-1H-pyrazolo[3,4-d]pyrimidin-6-yl)amino)-1,2,3,4-tetrahydroisoquinoline-2-carbonyl)-4-fluoropiperidine-1-carbonyl)piperidin-1-yl)-2-(2,6-dioxopiperidin-3-yl)isoindoline-1,3-dione], 0.1 to 10 nM; under `Cc1cccc(C)c1Nc1nn(C)c2nc(Nc3ccc4c(c3)CN(C(=O)C3(F)CCN(C(=O)CNc5ccc6c(c5)C(=O)N(C5CCC(=O)NC5=O)C6=O)CC3)CC4)ncc12` (stereo not drawn) [Compound 247, 5-((2-(4-(7-((3-((2,6-Dimethylphenyl)amino)-1-methyl-1H-pyrazolo[3,4-d]pyrimidin-6-yl)amino)-1,2,3,4-tetrahydroisoquinoline-2-carbonyl)-4-fluoropiperidin-1-yl)-2-oxoethyl)amino)-2-(2,6-dioxopiperidin-3-yl)isoindoline-1,3-dione], 0.1 to 10 nM. Under `Cc1cccc(C)c1Nc1nn(C)c2nc(Nc3ccc4c(c3)CN(C(=O)C3(F)CCN(C(=O)COc5ccc6c(c5)C(=O)N(C5CCC(=O)NC5=O)C6=O)CC3)CC4)ncc12` (stereo not drawn) [Compound 248, 5-(2-(4-(7-((3-((2,6-Dimethylphenyl)amino)-1-methyl-1H-pyrazolo[3,4-d]pyrimidin-6-yl)amino)-1,2,3,4-tetrahydroisoquinoline-2-carbonyl)-4-fluoropiperidin-1-yl)-2-oxoethoxy)-2-(2,6-dioxopiperidin-3-yl)isoindoline-1,3-dione] stands 0.1 to 10 nM; under `Cc1cccc(C)c1Nc1nn(C)c2nc(Nc3ccc(F)c(C4=CCN(CC5CCN(c6ccc7c(c6)C(=O)N(C6CCC(=O)NC6=O)C7=O)CC5)CC4)c3)ncc12` (stereo not drawn) [Compound 250, 5-(4-((4-(5-((3-((2,6-Dimethylphenyl)amino)-1-methyl-1H-pyrazolo[3,4-d]pyrimidin-6-yl)amino)-2-fluorophenyl)-3,6-dihydropyridin-1 (2H)-yl)methyl)piperidin-1-yl)-2-(2,6-dioxopiperidin-3-yl)isoindoline-1,3-dione], 0.1 to 10 nM; under `Cc1cccc(C)c1Nc1nn(C)c2nc(Nc3ccc(C4CCN(C(=O)C5(F)CCN(c6ccc7c(c6)C(=O)N(C6CCC(=O)NC6=O)C7=O)CC5)CC4)cc3)ncc12` (stereo not drawn) [Compound 253, 5-(4-(4-(4-((3-((2,6-dimethylphenyl)amino)-1-methyl-1H-pyrazolo[3,4-d]pyrimidin-6-yl)amino)phenyl)piperidine-1-carbonyl)-4-fluoropiperidin-1-yl)-2-(2,6-dioxopiperidin-3-yl)isoindoline-1,3-dione], 0.1 to 10 nM. On to `Cc1cccc(C)c1Nc1nn(C)c2nc(Nc3ccc(C4CCN(C(=O)C5(F)CCN(c6cc7c(cc6F)C(=O)N(C6CCC(=O)NC6=O)C7=O)CC5)CC4)cc3)ncc12` (stereo not drawn) [Compound 254, 5-(4-(4-(4-((3-((2,6-dimethylphenyl)amino)-1-methyl-1H-pyrazolo[3,4-d]pyrimidin-6-yl)amino)phenyl)piperidine-1-carbonyl)-4-fluoropiperidin-1-yl)-2-(2,6-dioxopiperidin-3-yl)-6-fluoroisoindoline-1,3-dione], for which the DC50 fell in the range of 10 to 1000 nM. With `Cc1cccc(C)c1Nc1nn(C)c2nc(Nc3ccc(N4CCN(CC5CCN(C(=O)c6ccc7c(c6)CN(C6CCC(=O)NC6=O)C7=O)CC5)CC4)cc3)ncc12` (stereo not drawn) [Compound 256, 3-(5-(4-((4-(4-((3-((2,6-Dimethylphenyl)amino)-1-methyl-1H-pyrazolo[3,4-d]pyrimidin-6-yl)amino)phenyl)piperazin-1-yl)methyl)piperidine-1-carbonyl)-1-oxoisoindolin-2-yl)piperidin-2,6-one], the DC50 was 0.1 to 10 nM. `Cc1cccc(C)c1Nc1nn(C)c2nc(Nc3ccc4c(c3)CN(CC3CCN(C(=O)c5ccc6c(c5)CN(C5CCC(=O)NC5=O)C6=O)CC3)CC4)ncc12` (stereo not drawn) [Compound 258, 3-(5-(4-((7-((3-((2,6-Dimethylphenyl)amino)-1-methyl-1H-pyrazolo[3,4-d]pyrimidin-6-yl)amino)-3,4-dihydroisoquinolin-2 (1H)-yl)methyl)piperidine-1-carbonyl)-1-oxoisoindolin-2-yl)piperidin-2,6-one]: the DC50 lay within 0.1 to 10 nM. For `Cc1cccc(C)c1Nc1nn(C)c2nc(Nc3ccc4c(c3)CN(C(=O)/C(C#N)=C/C3CCN(C(=O)c5ccc6c(c5)CN(C5CCC(=O)NC5=O)C6=O)CC3)CC4)ncc12` (stereo not drawn) [Compound 259, (E)-2-(7-((3-((2,6-Dimethylphenyl)amino)-1-methyl-1H-pyrazolo[3,4-d]pyrimidin-6-yl)amino)-1,2,3,4-tetrahydroisoquinoline-2-carbonyl)-3-(1-(2-(2,6-dioxopiperidin-3-yl)-1-oxoisoindoline-5-carbonyl)piperidin-4-yl)acrylonitrile], the DC50 is 10 to 1000 nM. The same measure for `Cc1cccc(C)c1Nc1nn(C)c2nc(Nc3ccc4c(c3)CN(C(=O)/C(C#N)=C/C3CCN(C(=O)CNc5ccc6c(c5)C(=O)N(C5CCC(=O)NC5=O)C6=O)CC3)CC4)ncc12` (stereo not drawn) [Compound 260, (E)-2-(7-((3-((2,6-Dimethylphenyl)amino)-1-methyl-1H-pyrazolo[3,4-d]pyrimidin-6-yl)amino)-1,2,3,4-tetrahydroisoquinoline-2-carbonyl)-3-(1-((2-(2,6-dioxopiperidin-3-yl)-1,3-dioxoisoindolin-5-yl)glycyl)piperidin-4-yl)acrylonitrile]: 0.1 to 10 nM.
